Data as given in patent US20250387334A1, “Oxyanion azide-benzaldehyde acetal acid-degradable lipids” (The Regents of the University of California, priority 2023, published 2025).
Each block holds one compound with its values, some of them ahead of it.

Tests used:
[1] = Hydrolysis kinetics of compounds 1-3 and their reduced forms (plate reader, mass spectrum); type: physicochemical; conditions: for half-life: buffer; for compound detected in the buffer by mass spectrum: 6 hours
Text: Engineering PEG-lipids to rapidly hydrolyze in endosomes has the potential to generate LNPs that have high levels of PEGylation and also transfect cells efficiently^10, 19, 20. The PEG-lipid reduces LNP toxicity and enhances LNP diffusion through tissue. However, LNPs are currently made with 0.5-1.5 mole percent of the PEG-lipid because increasing PEGylation levels beyond these levels can have detrimental effects. For example, the PEG-lipid lowers endosomal disruption by preventing the mixing of the ionizable lipid with endosomal lipids^20, 21 and causes the formation of anti-PEG antibodies^22. LNPs made with acid-degradable PEG-lipids should transfect cells efficiently even at high levels of PEGylation because they will hydrolyze off the LNP after endocytosis and will be released from the LNP surface. In addition, the immunogenicity of PEG dramatically increases after conjugation to lipids, and acid-degradable PEG-lipids may also have lower immunogenicity than traditional PEG-lipids because they will rapidly generate free PEG after endocytosis^22, 23.

[2] = Acid-catalyzed hydrolysis kinetics of model azido-acetal 4 and its reduced form 5; type: physicochemical
Text: RD-LNPs are based upon the rapid hydrolysis of the azido-acetal linker at pH 6.0. We synthesized the model azido-acetal 4 and measured its acid-catalyzed hydrolysis rate before and after reduction to investigate whether reductive activation accelerates the hydrolysis kinetics of an azido-acetal. […] The azido-acetal has the stability needed for performing multi-step organic reactions and should enable the development of new materials that are hypersensitive to acidic conditions. […] In addition, the reduced azido-acetal hydrolyzes with a t1/2<30 minutes at pH 6.0 and has the hydrolysis kinetics needed to degrade in endosomes before trafficking to lysosomes occurs4. The two-step hydrolysis mechanism of the azido-acetal overcomes the stability problems preventing the development of rapidly hydrolyzing lipids and provides a general strategy for developing lipids and materials that rapidly hydrolyze at endosomal pHs.

[3] = DTT reduction kinetics of compound 4; type: physicochemical
[4] = IL-22 protein; cited from earlier work

Compound: COCCOCCOCCOCCOCCOCCOCCOCCOCCOCCOCCOCCOCCOCCOCCOCCOCCOCCOCCOCCOCCOCCOCCOCCOCCOCCOCCOCCOCCOCCOCCOCCOCCOCCOCCOCCOCCOCCOCCOCCOCCOCCOCCOCCOCCOC(=O)NCCOC(OCCNC(=O)O[C@H]1CC[C@@]2(C)C(=CC[C@H]3[C@@H]4CC[C@H]([C@H](C)CCCC(C)C)[C@@]4(C)CC[C@@H]32)C1)c1ccc(N=[N+]=[N-])cc1 (some centres unmarked) [Compound 1]
- half-life ([1]; pH 4.0, read-out: t1/2 (minute) pH 4.0): 54.8 ± 3.89 min
- half-life ([1]; pH 5.0, read-out: t1/2 (minute) pH 5.0): 192 ± 28.3 min
- half-life ([1]; pH 6.0, cell prints day, read-out: t1/2 pH 6.0): 4280 min
- half-life ([1]; pH 7.4, cell prints day, read-out: t1/2 pH 7.4 (converted)): 28500 min

Compound: CC(C)CCC[C@@H](C)[C@H]1CC[C@H]2[C@@H]3CC=C4C[C@@H](OC(=O)NCCOC(OCC[N+](C)(C)C)c5ccc(N=[N+]=[N-])cc5)CC[C@]4(C)[C@H]3CC[C@]12C (some centres unmarked) [Compound 3]
- compound detected in the buffer by mass spectrum ([1]; pH 4 and pH 5, 37° C.): nearly no compound 3 was detected
- compound detected in the buffer by mass spectrum ([1]; pH 6 and pH 7.4, 37° C.): a large amount

- half-life ([2]; buffer, pH 4): 0.0567 ± 0.00133 h
- half-life ([2]; buffer, pH 5): 0.619 ± 0.0115 h
- half-life ([2]; buffer, pH 6): 8.57 ± 0.117 h
- half-life ([2]; pH 7.4): 507 h
- predicted hydrolysis half-life ([2]; pH 7.4): 21 days
- hydrolysis after 6.5 hours ([2]; pH 7.4, 6.5 hours): under 1%
- half-life ([3]; 10 mM DTT solution (chemical reduction), read-out: DTT reduction t1/2 (minute) 10 mM): 26.4 ± 3.37 min
- half-life ([3]; 25 mM DTT solution (chemical reduction), read-out: DTT reduction t1/2 (minute) 25 mM): 14.2 ± 0.5 min
- half-life ([3]; 50 mM DTT solution (chemical reduction), read-out: DTT reduction t1/2 (minute) 50 mM): 11.9 ± 1.85 min
- half-life ([3]; 100 mM DTT solution (chemical reduction), read-out: DTT reduction t1/2 (minute) 100 mM): 7.21 ± 0.11 min
Compound: COC(=O)NCCOC(OCCNC(=O)OC)c1ccc(N=[N+]=[N-])cc1 [Compound 4]

Compound: IL-22: soluble IL-22 protein, cytokine
- circulation half-life [4]: under 2 hours
